Measured values: patent publication US7279161B2, “Factor IX/factor IXa activating antibodies and antibody derivatives” (Baxter Aktiengesellschaft, priority 1999, dated 2007)
“Also recorded” adds a separate entry of the source. Blank lines part the entries; values can stand above or below the substance they belong to.

Legend:
FVIII deficient plasma = experiment: aPTT based one stage clotting assay in FVIII deficient plasma; format: biochemical, human; conditions: for one-stage clotting time (printed in brackets after 'strong reduction' / 'strongly active'): 12.5 μM, 2.2 nM human FIXa
Procedure: During normal hemostasis, FIX becomes initially activated either by the tissue factor (TF)/factor VIIa pathway or later on by activated factor XI (FXIa). Subsequent to its activation, FIXa associates on the platelet surface in a membrane bound complex with activated FVIII. […] Different amounts of antibody 193/AD3 or mouse IgG (as a control) were used in a standard aPTT based one stage clotting assay. Briefly, 100 μl of antibody-containing samples were incubated with 100 μl of FVIII deficient plasma (DP) and with 100 μl of DAPTTIN (PTT Reagent for determining activated Thromboplastin Time; IMMUNO AG) reagent, in a KC10A clotting analyzer. Where indicated, a total amount of 50 ng activated FIX was included in the reaction mixture. After a 4 minute incubation, the reaction was started by the addition of 100 μl CaCl2 (25 mM).
The peptides were also analyzed for their potential to reduce the clotting time in a FVIII deficient plasma. The aPTT based one stage clotting assay was essentially done as described (see example 6). Clotting times (time from starting the reaction to the “clot”-formation were compared either against FVIII, a buffer control (IZ) or a control peptide (scrambled version). The results of two typical clotting experiments done with two different aPTT reagents (DAPTTIN and Pathromtin SL) are shown in table 3A and table 3B.

human FIXa = target: T1, human FIXa (Homo sapiens, UniProt P00740); experiment: Chromogenic FVIII-like (FXa generation) assay with human FIXa added; format: biochemical
T1 construct: with (+) and without (−) addition of 50 ng human FIXaβ; purchased ERL (Enzyme Research Laboratories)
Procedure: The chromogenic activity of these antibody preparations was measured in the following FXa generation kinetic assay: 10 μg of monoclonal antibody (in 25 μl) were transferred to microtiter plate wells and warmed to 37° C. Chromogenic substrate (S-2222), synthetic thrombin inhibitor (I-2581), factor IXa and FX were reconstituted in sterile water and FIXa/FX (both bovine) were mixed with phospholipids according to the supplier's protocol. Per reaction, 50 μl of the phospholipid/FIXa/FX solution were combined with 25 μl CaCl2 (25 mM) and 50 μl of the substrate/inhibitor cocktail. To start the reaction, 125 μl of the premix were added to the monoclonal antibody solution in the microtiter plates and incubated at 37° C. Absorbance at 405 nm and 490 nm of the samples was read at various times (5 min to 2 h) against a reagent blank ([…] TBS instead of monoclonal antibodies) in a Labsystems iEMS Reader MF™ microtiter plate reader using GENESIS™ software. In parallel, the same reactions were performed except that 50 ng human FIXa were added per reaction.
To analyze the FVIII-like (FIXa activating) activity of the peptides, an assay system based on a commercial available FVIII assay was developed (see examples 2 and 4). The basic principle is, that without a cofactor, FIXa will have very limited activity towards its natural substrate FX. […] The amount of FXa generated is monitored by cleavage of a chromogenic substrate. The principle of the revised chromogenic assay is described for two representative peptides: A1/3 and A1/5 (Table 2). Briefly, 25 μl aliquots of peptide stock solution (in imidazole buffer (IZ) 50 mM imidazole, 100 mM NaCl, pH 7.2) were transferred to microtiter plate wells and warmed to 37° C. Chromogenic FXa substrate (S-2222), synthetic thrombin inhibitor (I-2581), bovine FIXa and bovine FX were reconstituted in sterile water and FIXa/FX mixed with phospholipids according to the supplier's protocol. […] Per reaction, 50 μl of the phospholipid/FIXa/FX solution were combined with 25 μl CaCl2 (25 mM) and 50 μl of the substrate/inhibitor cocktail. To start the reaction, 125 μl of the premix were added to the peptide solution in the microtiter plate and incubated at 37° C. Absorbance at 405 nm and 490 nm of the samples was read at various times (5 min to 2 h) against a reagent blank in a Labsystems iEMS Reader MF™ microtiter plate reader using GENESIS™ software.

[1] = in the presence of 2.2 nM human FIXa
[2] = 12.5 nM peptide, (+) presence of activated human FIX
[3] = 12.5 nM peptide, (−) absence of activated human FIX
[4] = 0.125 μM peptide, (+) presence of activated human FIX
[5] = 0.125 μM peptide, (−) absence of activated human FIX
[6] = 1.25 μM peptide, (+) presence of activated human FIX
[7] = 1.25 μM peptide, (−) absence of activated human FIX
[8] = 12.5 μM peptide, (+) presence of activated human FIX
[9] = 12.5 μM peptide, (−) absence of activated human FIX

- final concentration of optimum chromogenic activity (human FIXa): ~12 µM
Substance: RRREGGAYYVNWYFDRRR [A1/3-3]
- one-stage clotting time (printed in brackets after 'strong reduction' / 'strongly active') (FVIII deficient plasma): 31 s
- one-stage clotting activity (FVIII deficient plasma; higher concentrations (12.5 μM), absence of FIXa): somewhat inhibitory
- one-stage clotting activity (FVIII deficient plasma; [1]): strongly active

Substance: RRREGGGFTVNWYFDRRR [B1/7]
- clotting time (FVIII deficient plasma; [2]): 99 s
- clotting time (FVIII deficient plasma; [3]): 110 s
- clotting time (FVIII deficient plasma; [4]): 99 s
- clotting time (FVIII deficient plasma; [5]): 109 s
- clotting time (FVIII deficient plasma; [6]): 92 s
- clotting time (FVIII deficient plasma; [7]): 112 s
- clotting time (FVIII deficient plasma; [8]): 83 s
- clotting time (FVIII deficient plasma; [9]): 157 s
- FIXa activating activity (generation of FXa) (human FIXa; 2.4 μM peptide, 2.3 nM human FIXa): well measurable generation of FXa; also recorded: measureable generation of Fxa
- FXa generation without FIXa and FX (human FIXa; 2.4 μM peptide, w/o FIXa/FX): no FXa was synthesized; also recorded: no reaction is detectable

- chromogenic activity (human FIXa; 12 μM peptide, 2.3 nM human FIXa): virtually unchanged
- chromogenic activity (human FIXa; 12 μM peptide, 2.3 nM human FIXa, listed as A1/3-rd): did not change the FVIII-like activity
Substance: RdRdRdEGGGYYVNWYFDRdRdRd [A1/3-Rd]
- average clotting time (FVIII deficient plasma; Table 4, 1.25 μM, 2.2 nM FIXa): 96 s
- clotting time (FVIII deficient plasma; Table 4, 1.25 μM, 2.2 nM FIXa, duplicate 1): 96.6 s
- clotting time (FVIII deficient plasma; Table 4, 1.25 μM, 2.2 nM FIXa, duplicate 2): 96 s
- average clotting time (FVIII deficient plasma; Table 4, 1.25 μM, w/o FIXa): 108 s
- clotting time (FVIII deficient plasma; Table 4, 1.25 μM, w/o FIXa, duplicate 1): 107.5 s
- clotting time (FVIII deficient plasma; Table 4, 1.25 μM, w/o FIXa, duplicate 2): 107.7 s
- average clotting time (FVIII deficient plasma; Table 4, 2.5 μM, 2.2 nM FIXa): 95 s
- clotting time (FVIII deficient plasma; Table 4, 2.5 μM, 2.2 nM FIXa, duplicate 1): 94.4 s
- clotting time (FVIII deficient plasma; Table 4, 2.5 μM, 2.2 nM FIXa, duplicate 2): 94.7 s
- average clotting time (FVIII deficient plasma; Table 4, 2.5 μM, w/o FIXa): 103 s
- clotting time (FVIII deficient plasma; Table 4, 2.5 μM, w/o FIXa, duplicate 1): 102.7 s
- clotting time (FVIII deficient plasma; Table 4, 2.5 μM, w/o FIXa, duplicate 2): 103.4 s
- average clotting time (FVIII deficient plasma; Table 4, 5 μM, 2.2 nM FIXa): 86 s
- clotting time (FVIII deficient plasma; Table 4, 5 μM, 2.2 nM FIXa, duplicate 1): 86 s
- clotting time (FVIII deficient plasma; Table 4, 5 μM, 2.2 nM FIXa, duplicate 2): 85.1 s
- average clotting time (FVIII deficient plasma; Table 4, 5 μM, w/o FIXa): 99 s
- clotting time (FVIII deficient plasma; Table 4, 5 μM, w/o FIXa, duplicate 1): 99.2 s
- clotting time (FVIII deficient plasma; Table 4, 5 μM, w/o FIXa, duplicate 2): 99.1 s
- average clotting time (FVIII deficient plasma; Table 4, 7.5 μM, 2.2 nM FIXa): 82 s
- clotting time (FVIII deficient plasma; Table 4, 7.5 μM, 2.2 nM FIXa, duplicate 1): 80.9 s
- clotting time (FVIII deficient plasma; Table 4, 7.5 μM, 2.2 nM FIXa, duplicate 2): 82.2 s
- average clotting time (FVIII deficient plasma; Table 4, 7.5 μM, w/o FIXa): 98 s
- clotting time (FVIII deficient plasma; Table 4, 7.5 μM, w/o FIXa, duplicate 1): 97.6 s
- clotting time (FVIII deficient plasma; Table 4, 7.5 μM, w/o FIXa, duplicate 2): 98.1 s
- average clotting time (FVIII deficient plasma; Table 4, 10 μM, 2.2 nM FIXa): 76 s
- clotting time (FVIII deficient plasma; Table 4, 10 μM, 2.2 nM FIXa, duplicate 1): 74.2 s
- clotting time (FVIII deficient plasma; Table 4, 10 μM, 2.2 nM FIXa, duplicate 2): 77.2 s
- average clotting time (FVIII deficient plasma; Table 4, 10 μM, w/o FIXa): 95 s
- clotting time (FVIII deficient plasma; Table 4, 10 μM, w/o FIXa, duplicate 1): 93.5 s
- clotting time (FVIII deficient plasma; Table 4, 10 μM, w/o FIXa, duplicate 2): 95.8 s
- average clotting time (FVIII deficient plasma; Table 4, 12.5 μM, 2.2 nM FIXa): 73 s
- clotting time (FVIII deficient plasma; Table 4, 12.5 μM, 2.2 nM FIXa, duplicate 1): 72.3 s
- clotting time (FVIII deficient plasma; Table 4, 12.5 μM, 2.2 nM FIXa, duplicate 2): 73.7 s
- average clotting time (FVIII deficient plasma; Table 4, 12.5 μM, w/o FIXa): 98 s
- clotting time (FVIII deficient plasma; Table 4, 12.5 μM, w/o FIXa, duplicate 1): 98 s
- clotting time (FVIII deficient plasma; Table 4, 12.5 μM, w/o FIXa, duplicate 2): 98.6 s
- average clotting time (FVIII deficient plasma; Table 4, 15 μM, 2.2 nM FIXa): 75 s
- clotting time (FVIII deficient plasma; Table 4, 15 μM, 2.2 nM FIXa, duplicate 1): 76.1 s
- clotting time (FVIII deficient plasma; Table 4, 15 μM, 2.2 nM FIXa, duplicate 2): 74.4 s
- average clotting time (FVIII deficient plasma; Table 4, 15 μM, w/o FIXa): 96 s
- clotting time (FVIII deficient plasma; Table 4, 15 μM, w/o FIXa, duplicate 1): 96.4 s
- clotting time (FVIII deficient plasma; Table 4, 15 μM, w/o FIXa, duplicate 2): 95.4 s
- aPTT based one-stage clotting activity (FVIII deficient plasma; compared with A1/3): somewhat reduced, was still easily detectable

- chromogenic activity (human FIXa; Alanine scan): high chromogenic activity
Substance: RRREGAGYYVNWYFDRRR [A1/3-2]
- one-stage clotting time (printed in brackets after 'strong reduction' / 'strongly active') (FVIII deficient plasma): 34 s
- one-stage clotting activity (FVIII deficient plasma; [1]): strong reduction of the one-stage clotting time

- chromogenic FVIII-like activity at higher concentrations (human FIXa; up to 24 μM): lost activity
Substance: RRREGGEYYVNWYFDRRR [A1/3-24]
- procoagulant activity (FVIII deficient plasma; absence of human FIXa): no procoagulant activity
- one-stage clotting activity (FVIII deficient plasma; [1]): strongly active

- FIXa activating activity in chromogenic assay (human FIXa; data not shown): no activity
Substance: RRRFGVGYGETNFDWRRR [B1/7scr3]
- clotting time (FVIII deficient plasma; [2]): 94 s
- clotting time (FVIII deficient plasma; [3]): 105 s
- clotting time (FVIII deficient plasma; [4]): 94 s
- clotting time (FVIII deficient plasma; [5]): 106 s
- clotting time (FVIII deficient plasma; [6]): 94 s
- clotting time (FVIII deficient plasma; [7]): 105 s
- clotting time (FVIII deficient plasma; [8]): 102 s
- clotting time (FVIII deficient plasma; [9]): 115 s
